This passage reports IC50 results from patent EP4685142A1, “TRIAZINE COMPOUND AND USE THEREOF” (Chengdu Zenitar Biomedical Technology Co., Ltd., priority 2023, dated 2024).

The target of one test is T1, NLRP3 inflammasome (Homo sapiens, UniProt Q96P20).
T1 construct: host or cells: THP-1 cells
T1 sequence (Q96P20 whole entry): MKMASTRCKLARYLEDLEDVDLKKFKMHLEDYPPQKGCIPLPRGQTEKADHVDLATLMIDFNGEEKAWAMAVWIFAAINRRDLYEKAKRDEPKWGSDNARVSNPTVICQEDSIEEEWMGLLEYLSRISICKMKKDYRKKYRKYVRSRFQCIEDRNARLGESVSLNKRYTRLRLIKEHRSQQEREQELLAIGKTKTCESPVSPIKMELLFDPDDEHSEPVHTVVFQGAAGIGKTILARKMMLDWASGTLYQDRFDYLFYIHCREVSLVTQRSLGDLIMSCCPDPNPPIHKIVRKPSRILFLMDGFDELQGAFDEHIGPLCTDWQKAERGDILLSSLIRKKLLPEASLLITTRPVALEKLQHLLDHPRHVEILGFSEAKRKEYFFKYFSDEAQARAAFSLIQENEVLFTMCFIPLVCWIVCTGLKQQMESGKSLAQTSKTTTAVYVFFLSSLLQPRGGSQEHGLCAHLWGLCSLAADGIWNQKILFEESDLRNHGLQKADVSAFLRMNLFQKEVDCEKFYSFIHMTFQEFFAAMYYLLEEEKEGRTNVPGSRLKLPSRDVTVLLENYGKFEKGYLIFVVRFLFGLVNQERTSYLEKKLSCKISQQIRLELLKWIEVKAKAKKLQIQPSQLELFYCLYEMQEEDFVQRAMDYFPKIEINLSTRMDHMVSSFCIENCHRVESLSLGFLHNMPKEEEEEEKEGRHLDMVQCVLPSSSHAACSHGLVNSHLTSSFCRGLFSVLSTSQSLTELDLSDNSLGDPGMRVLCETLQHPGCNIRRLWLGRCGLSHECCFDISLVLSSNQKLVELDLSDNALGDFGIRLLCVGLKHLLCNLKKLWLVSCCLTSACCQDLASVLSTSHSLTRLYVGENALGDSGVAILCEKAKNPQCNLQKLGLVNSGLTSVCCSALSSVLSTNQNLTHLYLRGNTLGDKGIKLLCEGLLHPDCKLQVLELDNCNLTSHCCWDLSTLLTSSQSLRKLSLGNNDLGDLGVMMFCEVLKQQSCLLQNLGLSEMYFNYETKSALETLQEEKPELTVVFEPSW
Kind of test: Inhibitory activity of NLRP3 inflammasome in human monocytes (THP-1 cells, LPS + Nigericin, IL-1β ELISA). The class given is cell-based. The following applies: THP-1 cells, PMA, LPS 1 µg/mL 3 h, drug 40 min, Nigericin 10 µM 40 min, IL-1β ELISA; read-out: IC50. As for the experimental part:
1. Determination of inhibitory activity of NLRP3 inflammasome in human monocytes
Experimental method: THP-1 cells were cultured in RPMI culture medium containing PMA (10 µM), and then inoculated in 48-well plates at a density of 2×10^5 cells/mL, the plates were incubated overnight in a 5% CO2 incubator at 37°C. The next day, the above culture medium was replaced with Opti-MEM culture medium containing 1 µg/mL LPS. After 3 hours, the grown cells were simulated for 40 min with a drug, and then simulated for 40 min with Nigericin (10 µM), and a cell supernatant was harvested for ELISA analysis.
Table 2 Inhibitory activity of NLRP3 inflammasome
As for `[2H]C([2H])([2H])N1CCC[C@@H](Nc2nnc(-c3ccc4sccc4c3O)n(C)c2=O)C1` [Compound 10, (R)-3-(4-hydroxybenzo[b]thiophen-5-yl)-4-methyl-6-((1-(methyl-d3)piperidin-3-yl)amino)-1,2,4-triazin-5(4H)-ketone], the half-inhibitory concentration (IC50) is 3.9 nM.

Staying with this test, now noted: read-out: IC50.
In the case of `Cn1c(-c2ccc3c(c2O)CCC3=C(F)F)nnc(N[C@@H]2CCCN(CCO)C2)c1=O` [Compound 1, (R)-3-(1-(difluoromethylene)-4-hydroxy-2,3-dihydro-1H-inden-5-yl)-6-((1-(2-hydroxyethyl)piperidin-3-yl)amino)-4-methyl-1,2,4-triazin-5(4H)-ketone], the 50% inhibitory concentration (IC50) was 4.24 nM.

Regarding `[2H]C([2H])([2H])C([2H])([2H])N1CCC[C@@H](Nc2nnc(-c3ccc4ccccc4c3O)n(C)c2=O)C1` [Compound 7, (R)-6-((1-(ethyl-d5)piperidin-3-yl)amino)-3-(1-hydroxynaphthalen-2-yl)-4-methyl-1,2,4-triazi n-5(4H)-ketone], the 50% inhibitory concentration (IC50) came out at 22.1 nM. Same read-out and setting: the figure for `CCN1CCC[C@@H](Nc2nnc(-c3ccc(C4CC4)cc3O)n(C)c2=O)C1` [Compound 11, (R)-3-(4-cyclopropyl-2-hydroxyphenyl)-6-((1-ethylpiperidin-3-yl)amino)-4-methyl-1,2,4-triaz in-5(4H)-ketone] is 6.5 nM; for `Cn1c(-c2ccc3c(c2O)CCC3=C(F)F)nnc(N[C@@H]2CCCN(C3CC(F)(F)C3)C2)c1=O` [Compound 14, (R)-6-((1-(3,3-Difluorocyclobutyl)piperidin-3-yl)amino)-3-(1-(difluoromethylene)-4-hydroxy-2,3-dihydro-1H-inden-5-yl)-4-methyl-1,2,4-triazin-5(4H)-ketone] it is 32 nM; for `[2H]C([2H])([2H])C([2H])([2H])N1CCC[C@@H](Nc2nnc(-c3ccc4c(c3O)CCC4=C(F)F)n(C)c2=O)C1` [Compound 15, (R)-3-(1-(difluoromethylene)-4-hydroxy-2,3-dihydro-1H-inden-5-yl)-6-((1-(ethyl-d5)piperidin-3-yl)amino)-4-methyl-1,2,4-triazin-5(4H)-ketone] it is 1.45 nM. Same read-out and setting: the same measure for `CN1CCC[C@@H](Nc2nnc(-c3ccc4ccccc4c3O)n(C)c2=O)C1` [Compound 18, (R)-3-(1-hydroxy-2-naphthyl)-4-methyl-6-((1-methylpiperidin-3-yl)amino)-1,2,4-triazin-5(4H )-ketone]: 25 nM; for `CCN1CCC[C@@H](Nc2nnc(-c3ccc4ccccc4c3O)n(C)c2=O)C1` [Compound 19, (R)-6-((1-ethylpiperidin-3-yl)amino)-3-(1-hydroxynaphthalen-2-yl)-4-methyl-1,2,4-triazin-5(4H)-ketone]: 19.1 nM; for `Cn1c(-c2ccc3ccccc3c2O)nnc(N[C@@H]2CCCN(CCO)C2)c1=O` [Compound 20, (R)-6-((1-(2-hydroxyethyl)piperidin-3-yl)amino]-3-(1-hydroxynaphthalen-2-yl)-4-methyl-1,2,4-triazin-5(4H)-ketone]: 35.1 nM. On to `CN1CCC[C@@H](Nc2nnc(-c3ccc4sccc4c3O)n(C3CC3)c2=O)C1` [Compound 21, (R)-4-cyclopropyl-3-(4-hydroxybenzo[b]thiophen-5-yl)-6-((1-methylpiperidin-3-yl)amino)-1,2,4-triazin-5(4H)-ketone], for which the IC50 turned out to be 3.51 nM. The same measure, in the same setting: the figure for `CCN1CCC[C@@H](Nc2nnc(-c3ccc4sccc4c3O)n(C3CC3)c2=O)C1` [Compound 22, (R)-4-cyclopropyl-6-((1-ethylpiperidin-3-yl)amino)-3-(4-hydroxybenzo[b]thiophen-5-yl)-1,2,4-triazin-5(4H)-ketone] is 2.57 nM; for `O=c1c(N[C@@H]2CCCN(CCO)C2)nnc(-c2ccc3sccc3c2O)n1C1CC1` [Compound 23, (R)-4-cyclopropyl-3-(4-hydroxybenzo[b]thiophen-5-yl)-6-((1-(2-hydroxyethyl)piperidin-3-yl)amino)-1,2,4-triazin-5(4H)-ketone] it is 8.95 nM.
